According to patent US11634458B2, “Peptides and compositions for use in cosmetics and medicine” (LIPOTRUE, S.L., priority 2018, dated 2023):
“Also recorded” adds a separate entry of the source. Each block holds one substance with its values, some of them ahead of it.

How the values were obtained:
LAN cells = test: Measurement of acetylcholine release in differentiated LAN cells stimulated with 50 mM KCl; type: cell-based; conditions: 1 hour treatment, 0.001, 0.005 and 0.01 mg/mL (Ac-SEQ ID NO: 8-NH2: 0.005 and 0.05 mg/mL)
Method: Said peptides were tested for their ability to modulate acetylcholine release in vitro. To that end, LAN cells were seeded on 48-well culture plates and allowed to reach the appropriate confluence under controlled conditions (37° C., 5% CO2) before inducing differentiation by replacing the culture media with Neurobasal® A media, supplemented with N-2 Supplement, GlutaMAX™, choline chloride and Leukemia Inhibition factor (GIBCO, Life technologies, MA, USA). Once the cells acquired its differentiated morphology, they were treated with the peptides mentioned above at the following concentrations for 1 hour: all peptides, except Ac-SEQ ID NO: 8-NH2, at 0.001 mg/mL, 0.005 mg/mL and 0.01 mg/mL; and peptide Ac-SEQ ID NO: 8-NH2 at 0.005 mg/mL and 0.05 mg/mL. Cells were then washed with HEPES, before stimulation of acetylcholine release by depolarization with external 50 mM KCl solution. Non-stimulated cells were incubated with non-depolarizing 4 mM KCl solution. After 30 minutes of incubation with the corresponding depolarizing or non-depolarizing KCl solution, cell supernatants were collected and used to measure acetylcholine levels with Amplex Red Acetylcholine Assay Kit (ThermoFisher Scientific, MA, USA). Cell pellets were used to determine protein content by BCA Protein Test Assay (Pierce BCA Protein Assay kit, ThermoFisher Scientific, MA, USA) (for data normalization purposes).
Percentage of acetylcholine release inhibition was calculated considering 100% release for the positive control (non-treated stimulated with KCl cells).

[1] = tested on: human skeletal muscle myocytes; test: Gene expression modulation in skeletal muscle human myocytes (RTqPCR contractility gene panel); type: cell-based; conditions: 24 hours, vs basal control
Method: Said peptides were tested to evaluate their capacity to modulate the expression of several genes related with muscle contraction and relaxation in human skeletal muscle myocytes (Lodish H, Berk A, Zipursky S L, et al. (2000), Molecular Cell Biology, 4th edition; Section 18.3 Myosin: The Actin Motor Protein, Nueva York, W. H. Freeman; Kuo, I Y, & Ehrlich, B E (2015), Signaling in Muscle Contraction, Cold Spring Harbor Perspectives in Biology, 7(2); RAPSN receptor associated protein of the synapse [Homo sapiens (human)], Gene ID in NCBI 5913; Blake D J, Tinsley J M, Davies K E (1996), Utrophin: a structural and functional comparison to dystrophin, Brain Pathol., 6(1):37-47; Barik A, Lu Y, Sathyamurthy A, et.al. (2014), LRP4Is Critical for Neuromuscular Junction Maintenance, The Journal of Neuroscience, 34(42), 13892-13905; Kim N, Stiegler A L, Cameron T O, Hallock P T, et.al. (2008), Lrp4 is a Receptor for Agrin and Forms a Complex with MuSK, Cell, 135(2), 334-342; Mahavadi S, Nalli A, Kumar D, et.al. (2014), Increased expression of caveolin-1 is associated with upregulation of the RhoA/Rho kinase pathway and smooth muscle contraction in diabetes (1110.11), The FASEB Journal, 28:1_supplement)). To that end, a contractility smart data gene panel was designed. Said contractility smart data gene panel analyses the expression of the genes related with muscular contraction and relaxation included in table 5.
Briefly, human skeletal muscle myoblasts were seeded in duplicate in 12-well culture plates at a density of 1×10^5 cells/well and maintained at standard culture conditions (37° C., 95% humidity, 5% CO2) for 48-72h. Myoblast differentiation to myocyte was then induced with specific differentiation media (SKM-D medium+1% Antibiotic-Antimycotic) and monitored for 7 more days. Differentiated cells were treated with 0.05 mg/mL of peptide Ac-SEQ ID NO: 5-NH2; or with 0.1 mg/mL of peptide Ac-SEQ ID NO: 10-NH2 for 24 hours; or with 0.05 and 0.5 mg/mL of peptide Ac-SEQ ID NO: 8-NH2 for 6h; or with 0.5 mg/mL of peptide Ac-SEQ ID NO: 8-NH2 for 24 h. Untreated cells were used as basal control. Cells were then lysed for RNA extraction with a RNA purification commercial kit following manufacturer instructions (RNeasy mini kit, Qiagen, Netherlands). RNA was then quantified by nanodrop, adjusted in concentration and processed for retrotranscription to cDNA using a commercially available kit (High-Capacity cDNA Reverse Transcription kit, Thermofisher Scientific, USA). Resulting cDNA was used to perform a RTqPCR (Real Time Quantitative Polymerase Chain Reaction) using taqman technology and a panel of probes designed to target the specific genes related to muscle contractility mentioned in table 4.

Munc18/Syntaxin-1 = Munc18/Syntaxin-1 (Homo sapiens, UniProt Q16623); test: ELISA-based in vitro Munc18/Syntaxin-1 binding assay; conditions: peptide 0.1, 0.5 and 1 mM; Munc18 100 nM, Syntaxin-1 10 and 5 nM; control = 100% binding
Method: The capacity of the peptides to inhibit Munc18 protein-protein interaction with Syntaxin-1, a SNARE complex protein, was functionally evaluated by means of an ELISA-based in vitro Munc18/Syntaxin-1 binding assay. Briefly, the above-mentioned peptides at 0.1, 0.5 and 1 mM were preincubated with their target protein Syntaxin-1 (GST-tagged) at 10 and 5 nM in buffer (20 mM Hepes, 150 mM NaCl, 2 mM MgC2, 2 mM DTT, 0.5% Triton-X100 and 0.5% non-fat milk) for 3 hours at RT. Meanwhile, His-tagged Munc18 was bound to a Nickel-coated 96-well plate at 100 nM and incubated at RT for 1.5 hours. Non-bound protein was subsequently washed away before blocking wells with non-fat milk in wash buffer (PBS+0.02% Triton-X100) for additional 30 minutes. GST-tagged Syntaxin-1 preincubated with the peptides was then added at 10 and 5 nM to the plate and incubated for 2 h at RT. Wells were washed three times with wash buffer before incubation with the primary antibody (GST tag polyclonal antibody—Thermofisher Scientific, Massachusetts, USA) for 45 minutes. Finally, after washing again, HRP-conjugated secondary antibody (Anti-Rabbit-IgG-HRP—Sigma, Missouri, USA) was added and incubated at RT. TMB substrate (3,3′,5,5′-Tetramethylbenzidine) was used to develop signal. […] Amount of binding of Syntaxin-1 protein to Munc18 protein was analysed by measuring absorbance at 450 nm.

[2] = tested on: human muscle cells and motor neurons derived from hiPSC co-cultures; test: Contraction frequency in human muscle cell / hiPSC motor neuron co-cultures; type: cell-based; conditions: 0.5 mg/mL
Method: The potential of said peptide Ac-SEQ ID NO: 8-NH2 to modulate the contraction frequency was evaluated in vitro using human muscle cells and motor neurons derived from hiPSC co-cultures, by means of live-imaging video of localized contractile muscle fibers recorded with an InCell 2200 automated microscope during 60 seconds, before and after treatment (after treatment, at each of the established timepoints).
Human muscle cells were cultivated at a density of 1×10^6 cells in T75 cm^2 flasks and then transferred to 96 well plates for differentiation. Motor neurons derived from hiPSC were transferred onto the 96 well plates containing the muscle cells in a differentiation medium. Co-cultures were maintained for 10 days in order to generate neurons junctions with muscle fibers. Spontaneous contractions were observed within 5 days.
Co-cultures were then treated with control medium (basal), 1 μM α-bungarotoxin, 0.5 mg/mL of acetyl hexapeptide-8 as a benchmark reference and 0.05 or 0.1 mg/mL of peptide Ac-SEQ ID NO: 8-NH2. Movies of co-cultures were recorded during 60 seconds before treatment and, after 30 minutes of incubation, movies were recorded again during 60 seconds. The culture plate was incubated again for 1 h 30 min with compounds (2 h of total incubation), and movies of co-cultures were recorded again during 60 seconds. The culture plate was incubated again for a total of 24 h with compounds and at the end of the incubation movies were recorded again during 60 seconds. Finally, compounds were washed out and a last recording after 24 h from said washed out of the compounds was done to assess an eventual recovery of muscle contractions (recovery).
Frequencies of contraction were calculated before and after each incubation. For each culture condition, 6 wells were analyzed.

SH-SY5Y cells = test: Exocytosis levels and delay (fluorescent exocytosis reporter); type: cell-based, human; conditions: 1 mg/mL, 1 hour, PMA + ionomycin, vs non-treated cells
Method: The potential of said peptide Ac-SEQ ID NO: 8-NH2 to modulate the exocytosis of vesicles containing neurotransmitters from a neuroblastoma cell line was evaluated in vitro using SH-SY5Y cells, by fluorescence imaging using a Zeiss axiovert 200 inverted epifluorescence microscope with a 20× objective and a Xenon lamp.
SH-SY5Y cells (Sigma, USA) were cultured in T25 flasks in supplemented medium (DMEM/F12, Gibco, USA). Above 90% confluence, cells were trypsinized with 1 ml of 0.5% (v/v) Trypsin-EDTA. Next, 5 mL of said supplemented medium was added and cell concentration determined. Cells were seeded onto polyLysine-coated 12 mm-treated coverslips in 24 well-plates at 15×10^4 cells/well in supplemented medium (Gibco, USA) and incubated at regular conditions (37° C., 5% CO2). After 24 h cell seeding, cells were transfected with exocytosis reporter using Lipofectamine™ 3000 (Invitrogen, USA) following manufacturer's instructions. Reporter construct contained fusion protein made up of intraluminal-specific proteins and a pH-sensitive fluorescent protein.
For exocytosis monitorization, after 48 h of protein expression, cells were incubated with 0.01 mg/mL of Ac-SEQ ID NO: 8-NH2 peptide or 1 mg/mL of the benchmark acetyl hexapeptide-8 for 1 h at 37° C. and 5% CO2. Non-treated cells were used as basal control. […] Fluorescence imaging was done for the last 10 min of the stimulation protocol. Fluorescence signal of exocytosis reporter was monitored employing 483-512 nm excitation-filter and 525-530 nm emission-filter. […]
Non-treated cells were assayed in N=4 independent experiments with n=16 coverslips (483 cells measured), acetyl hexapeptide-8-treated cells in N=3 independent experiments with n=10 coverslips (328 cells measured) and Ac-SEQ ID NO: 8-NH2-treated cells in N=3 independent experiments with n=8 coverslips (240 cells measured). Cells were selected to individually monitor fluorescence intensity and time-course. Fluorescence peak evoked by ionomycin addition was used to quantify exocytosis by calculating the Area under the curve (AUC) using GraphPad software. Two parameters were defined and analyzed: • Exocytosis levels: For individual cells, total peak area was obtained from AUC analysis and was normalized by the baseline that was defined as fluorescence intensity 3-cycles before lonomycin injection. • Exocytosis delay: For individual cells, response time (min) was obtained from AUC analysis as time frame between lonomycin injection (Y) and initiation of peak (firstX).
Fluorescence values were further normalized as percentage change to non-treated cells on each experiment as: (exocytosis level of treated cells/exocytosis levels non-treated cells)×100 and (response time of treated cells/response time of non-treated cells)×100. […]

[3] = tested on: permeabilized chromaffin cells; conditions: Blanes-Mira et al. 2002; cited from earlier work

Munc18/Syntaxin-1, sequence (Q16623 whole entry): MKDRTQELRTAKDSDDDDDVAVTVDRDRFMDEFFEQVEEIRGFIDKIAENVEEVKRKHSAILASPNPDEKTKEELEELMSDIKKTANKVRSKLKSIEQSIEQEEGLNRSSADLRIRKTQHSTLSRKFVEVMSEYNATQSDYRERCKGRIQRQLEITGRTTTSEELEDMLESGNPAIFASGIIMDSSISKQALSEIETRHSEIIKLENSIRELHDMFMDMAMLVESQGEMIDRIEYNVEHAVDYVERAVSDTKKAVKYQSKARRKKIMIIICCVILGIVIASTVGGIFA

Substance: Ac-Arg-Arg-Arg-Phe-NH2 (Ac-RRRF-NH2) [Ac-SEQ ID NO: 10-NH2]
- Result: modulation of acetylcholine release (LAN cells): Active in the modulation of
- CACNB1 gene expression ([1]; 0.1 mg/mL): downregulation
- CHRNA1 gene expression ([1]; 0.1 mg/mL): downregulation
- SCN3A gene expression ([1]; 0.1 mg/mL): downregulation
- TNNC1 gene expression ([1]; 0.1 mg/mL): downregulation
- UTRN gene expression ([1]; 0.1 mg/mL): downregulation

Substance: Ac-Arg-Met-Arg-Phe-NH2 (Ac-RMRF-NH2) [Ac-SEQ ID NO: 11-NH2]
- Result: modulation of acetylcholine release (LAN cells): Active in the modulation of

Substance: Ac-Glu-Arg-Ile-Asn-Lys-Arg-Arg-Trp-NH2 (Ac-ERINKRRW-NH2) [Ac-SEQ ID NO: 13-NH2]
- Result: modulation of acetylcholine release (LAN cells): not able to inhibit the release of acetylcholine; also recorded: Non-active in the modulation

Substance: Ac-Glu-Arg-Ile-Asn-Lys-Met-Arg-Tyr-NH2 (Ac-ERINKMRY-NH2) [Ac-SEQ ID NO: 14-NH2]
- Result: modulation of acetylcholine release (LAN cells): not able to inhibit the release of acetylcholine; also recorded: Non-active in the modulation

- Maximum inhibition of Munc18-Syntaxin-1 binding (Munc18/Syntaxin-1): 67%
Substance: Ac-His-Ile-Leu-Asp-Met-Trp-NH2 (Ac-HILDMW-NH2) [Ac-SEQ ID NO: 5-NH2]
- Result: modulation of acetylcholine release (LAN cells): Active in the modulation of
- ACTA1 gene expression ([1]; 0.05 mg/mL): downregulation
- MYH1 gene expression ([1]; 0.05 mg/mL): downregulation
- RAPSN gene expression ([1]; 0.05 mg/mL): downregulation
- SCN3A gene expression ([1]; 0.05 mg/mL): downregulation
- TNNC1 gene expression ([1]; 0.05 mg/mL): downregulation
- UTRN gene expression ([1]; 0.05 mg/mL): downregulation

Substance: Ac-His-Ile-Leu-Asp-Trp-Trp-NH2 (Ac-HILDWW-NH2) [Ac-SEQ ID NO: 7-NH2]
- Result: modulation of acetylcholine release (LAN cells): Active in the modulation of

Substance: Ac-His-Ile-Met-Asp-Phe-Trp-NH2 (Ac-HIMDFW-NH2) [Ac-SEQ ID NO: 6-NH2]
- Result: modulation of acetylcholine release (LAN cells): Active in the modulation of

Substance: Ac-His-Ile-Met-Asp-Trp-Trp-NH2 (Ac-HIMDWW-NH2) [Ac-SEQ ID NO: 9-NH2]
- Result: modulation of acetylcholine release (LAN cells): Active in the modulation of

Substance: acetyl hexapeptide-8 [reference compound]
- muscle contraction frequency with regard to the basal non-treated cells ([2]; after 30 min): 18%
- muscle contraction frequency with regard to the basal non-treated cells ([2]; after 24 h): 45%
- muscle contraction frequency with regard to the basal non-treated cells ([2]; after washout): 100%
- change of exocytosis level (SH-SY5Y cells): 7%
- exocytosis response time delay (SH-SY5Y cells): 67%
- inhibition of exocytosis, maximum values [3]: 40%
